Laboratory results taken from patent publication US9518015B2, “EP1 receptor ligands” (LABORATORIOS DEL DR. ESTEVE, S.A., priority 2011, dated 2016).

What follows are compounds tested against T1, human EP1 receptor (Homo sapiens, UniProt P34995) (assay: Test 2: Measurement of IP1 responses by HTRF, suspended HEK-293 cells stably expressing human EP1 receptors, PGE2 30 nM). Details: HEK293, at 10 μM, read-out: Results of Test 2 (Functional assay), % inh.
T1 sequence (P34995 1-402): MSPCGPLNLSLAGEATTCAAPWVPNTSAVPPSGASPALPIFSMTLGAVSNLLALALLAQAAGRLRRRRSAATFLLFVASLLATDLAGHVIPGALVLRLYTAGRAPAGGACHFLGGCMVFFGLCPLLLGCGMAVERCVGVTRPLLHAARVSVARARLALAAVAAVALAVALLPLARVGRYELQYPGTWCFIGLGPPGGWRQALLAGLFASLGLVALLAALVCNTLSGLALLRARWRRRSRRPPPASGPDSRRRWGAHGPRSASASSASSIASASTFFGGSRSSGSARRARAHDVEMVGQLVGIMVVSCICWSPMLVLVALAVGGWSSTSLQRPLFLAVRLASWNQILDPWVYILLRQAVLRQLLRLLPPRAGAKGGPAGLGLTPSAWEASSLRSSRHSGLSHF
Assay type: cell-based
Set-up: expressed in transfected cells
Description: Test 2: Measurement of IP1 responses by Homogeneous Time Resolved Fluorescence
IP1 measurements on HEK-293 cells that stably expressed human EP1 receptors were performed by using a system based on Homogeneous Time Resolved Fluorescense (HTRF) (Gabriel et al., 2003). This technology allows the direct measurement of IP1 in living cells. The principle of this assay is based on competition between IP1 produced by cells and IP1-d2 conjugate for the binding with monoclonal anti-IP1-cryptate conjugate. The HTRF IP1 kit from CisBio was used according to the manufacturer's directions. The experimental procedure was performed as stated below.
Suspended cells (30,000 cells per well) were added to 96-well culture plates in 40 μl of stimulation buffer (supplied by the kit). Compounds were then added in 20 μl of stimulation buffer and incubated at 37° C. for 15 minutes followed by 10 μl of PGE2 to a final concentration of […]. After 90 minutes at 37° C., the reaction was stopped lysing the cells with a mixture of 15 μl of cryptate and 15 μl of IP1-d2 prepared in the lysis buffer supplied by the manufacturer. Plates were incubated for an additional hour at room temperature and read at 665 nm/620 nm using an UltraEvolution Plate reader (Tecan).
Antagonist percentage inhibition was calculated relating compounds activity to the 0% inhibition of the wells incubated with 10 nM PGE2 alone and 100% inhibition of the wells incubated with 10 nM PGE2 plus 1 μM of the reference antagonist.
With `O=C(O)c1cccc2c1ccn2Cc1cc(Br)ccc1OCc1ccccc1` [Example 2, 1-(2-(benzyloxy)-5-bromobenzyl)-1H-indole-4-carboxylic acid] the inhibition at 10 µM was greater than 75%. `O=C(O)c1cccc2c1ccn2Cc1cc(C(F)(F)F)ccc1OCc1ccccc1` [Example 3, 1-(2-(benzyloxy)-5-(trifluoromethyl)benzyl)-1H-indole-4-carboxylic acid] showed an inhibition at 10 µM greater than 75%. `O=C(O)c1cccc2c1ccn2Cc1cc(Br)ccc1OCc1ccc(F)cc1` [Example 4, 1-(5-bromo-2-((4-fluorobenzyl)oxy)benzyl)-1H-indole-4-carboxylic acid] was tested, and the inhibition at 10 µM was greater than 75%. Work on `O=C(O)c1cccc2c1ccn2Cc1cc(Cl)ccc1OCc1ccc(F)cc1` [Example 5, 1-(5-chloro-2-((4-fluorobenzyl)oxy)benzyl)-1H-indole-4-carboxylic acid] yielded an inhibition at 10 µM greater than 75%. Compound `O=C(O)c1cccc2c1ccn2Cc1cc(C(F)(F)F)ccc1OCc1ccc(Cl)cc1F` [Example 6, 1-(2-((4-chloro-2-fluorobenzyl)oxy)-5-(trifluoromethyl)benzyl)-1H-indole-4-carboxylic acid] has an inhibition at 10 µM greater than 75%. `O=C(O)c1cccc2c1ccn2Cc1cc(Cl)ccc1OCC1CC1` [Example 7, 1-(5-chloro-2-(cyclopropylmethoxy)benzyl)-1H-indole-4-carboxylic acid] gave an inhibition at 10 µM greater than 75%. `O=C(O)c1cccc2c1ccn2Cc1cc(Br)ccc1OCC1CC1` [Example 8, 1-(5-bromo-2-(cyclopropylmethoxy)benzyl)-1H-indole-4-carboxylic acid] showed an inhibition at 10 µM greater than 75%. `O=C(O)c1cccc2c1ccn2Cc1cc(Br)ccc1OCc1ccc(Cl)cc1F` [Example 9, 1-(5-bromo-2-((4-chloro-2-fluorobenzyl)oxy)benzyl)-1H-indole-4-carboxylic acid] showed an inhibition at 10 µM greater than 75%. Compound `CC(C)COc1cc(Cl)ccc1Cn1ccc2c(C(=O)O)cccc21` [Example 10, 1-(4-chloro-2-isobutoxybenzyl)-1H-indole-4-carboxylic acid] has an inhibition at 10 µM of 45 to 75%.

Same assay, conditions: at 10 μM
With “2-((1-(5-chloro-2-(cyclopropylmethoxy)benzyl)-1H-indol-4-yl)oxy)acetic acid [Example 86]” the “Results of Test 2 (Functional assay), % inh” value was “$$ (45 < % inh < 75)”.

Each compound was assayed against T1, human EP1 receptor (assay: Test 1: Human EP1 receptor radioligand binding assay ([3H]-PGE2, transfected HEK-293 cell membranes)). Details: at 10 μM.
Set-up: expressed in transfected cells; host or cells: HEK-293 cell membranes
Description: Test 1: Human EP1 Receptor Radioligand Binding Assay
To investigate binding properties of EP1 receptor ligands to human EP1 receptor, transfected HEK-293 cell membranes and [3H]-PGE2 (Perkin Elmer) were used. In 96-well plates the assay was carried out with a total reaction volume of 250 μl, containing 25 μl of membrane suspension (30 μg protein/well), 25 μl of [3H]-PGE2 (10 nM) in either absence or presence of 25 μl of either buffer or PGE2 (10 μM) for total and non-specific binding, respectively. Binding buffer contained 10 mM MES, 1 mM MgCl2 and 1 mM EDTA at pH 6.0. Plates were incubated at 25° C. for 60 minutes. After the incubation period, 200 μl of incubate were transferred to MultiScreen HTS, FB plates (Millipore), filtered and plates were washed 6 times with ice-cold 10 mM MES, 1 mM MgCl2 and 1 mM EDTA at pH 6.0. Filters were dried and counted in a MicroBeta scintillation counter (Perkin-Elmer) using EcoScint liquid scintillation cocktail.
Percentage inhibition was calculated relating compounds activity to the 0% inhibition of the wells incubated with 10 nM [3H]-PGE2 alone (total binding) and 100% inhibition of the wells incubated with 10 nM [3H]-PGE2 plus 10 μM PGE2 (non-specific binding).
For “1-(5-chloro-2-((2-chloro-5-fluorobenzyl)oxy)benzyl)-1H-indole-4-carboxylic acid [Example 30]”, the “Results of Test 1 (Binding assay), % inh” value was “## (45 < % inh < 75)”. `CC(C)(F)COc1ccc(Cl)cc1Cn1ncc2c(C(=O)[O-])ccnc21.[Na+]` [Example 213] was tested, and the “Results of Test 1 (Binding assay), % inh” value was “# (% inh > 75)”.

Same assay, conditions: read-out: Results of Test 1 (Binding assay), % inh
In the case of `O=C(O)c1cccc2c1ccn2Cc1cc(Cl)ccc1OCc1cc(F)c(F)cc1F` [Example 15, 1-(5-chloro-2-((2,4,5-trifluorobenzyl)oxy)benzyl)-1H-indole-4-carboxylic acid], the inhibition at 10 µM is reported as greater than 75%. For `O=C(O)c1cccc2c1ccn2Cc1cc(F)ccc1OCc1cc(F)c(F)cc1F` [Example 16, 1-(5-fluoro-2-((2,4,5-trifluorobenzyl)oxy)benzyl)-1H-indole-4-carboxylic acid], the inhibition at 10 µM was greater than 75%. With `O=C(O)c1cccc2c1ccn2Cc1cc(Br)ccc1OCc1ccc(F)c(F)c1F` [Example 22, 1-(5-bromo-2-((2,3,4-trifluorobenzyl)oxy)benzyl)-1H-indole-4-carboxylic acid] the inhibition at 10 µM was 45 to 75%. For `O=C(O)c1cccc2c1ccn2Cc1cc(Br)ccc1OCc1ccc(F)cc1C(F)(F)F` [Example 26, 1-(5-bromo-2-((4-fluoro-2-(trifluoromethyl)benzyl)oxy)benzyl)-1H-indole-4-carboxylic acid], the inhibition at 10 µM was greater than 75%. For `O=C(O)c1cccc2c1ccn2Cc1cc(Br)ccc1OCc1ccc(F)cc1Cl` [Example 27, 1-(5-bromo-2-((2-chloro-4-fluorobenzyl)oxy)benzyl)-1H-indole-4-carboxylic acid], the inhibition at 10 µM was greater than 75%. `O=C(O)c1cccc2c1ccn2Cc1cc(Cl)ccc1OCc1cc(F)c(F)cc1Cl` [Example 31, 1-(5-chloro-2-((2-chloro-4,5-difluorobenzyl)oxy)benzyl)-1H-indole-4-carboxylic acid] showed an inhibition at 10 µM of 45 to 75%. Compound `O=C(O)c1cccc2c1ccn2Cc1cc(F)ccc1OCc1cc(F)ccc1F` [Example 32, 1-(2-((2,5-difluorobenzyl)oxy)-5-fluorobenzyl)-1H-indole-4-carboxylic acid] has an inhibition at 10 µM of 45 to 75%. Work on `O=C(O)c1cccc2c1ccn2Cc1cc(Cl)ccc1OCc1ccccc1` [Example 44, 1-(2-(benzyloxy)-5-chlorobenzyl)-1H-indole-4-carboxylic acid] yielded an inhibition at 10 µM greater than 75%. With `O=C(O)c1cccc2c1ccn2Cc1cc(C(F)(F)F)ccc1OCc1ccc(Br)cc1F` [Example 50, 1-(2-((4-bromo-2-fluorobenzyl)oxy)-5-(trifluoromethyl)benzyl)-1H-indole-4-carboxylic acid] the inhibition at 10 µM was greater than 75%. In the case of `O=C(O)c1cccc2c1ccn2Cc1cc(F)ccc1OCc1ccc(Br)cc1F` [Example 56, 1-(2-((4-bromo-2-fluorobenzyl)oxy)-5-fluorobenzyl)-1H-indole-4-carboxylic acid], the inhibition at 10 µM is reported as greater than 75%. With `O=C(O)c1cccc2c1ccn2Cc1cc(Cl)ccc1OCc1c(F)cc(Cl)cc1F` [Example 57, 1-(5-chloro-2-((4-chloro-2,6-difluorobenzyl)oxy)benzyl)-1H-indole-4-carboxylic acid] the inhibition at 10 µM was greater than 75%. Work on `O=C(O)c1ccnc2c1ccn2Cc1cc(Cl)ccc1OCc1ccc(F)cc1F` [Example 91] yielded an inhibition at 10 µM greater than 75%. With `O=C(O)c1ncnc2c1ccn2Cc1cc(Cl)ccc1OCc1ccc(Cl)cc1F` [Example 98] the inhibition at 10 µM was greater than 75%. For `COc1ccc(OCc2ccc(F)cc2F)c(Cn2ccc3c(C(=O)O)cccc32)c1` [Example 101, sodium 1-{2-[(2,4-difluorobenzyl)oxy]-5-methoxybenzyl}-1H-indole-4-carboxylate], the inhibition at 10 µM was 45 to 75%. `CCCOc1ccc(F)cc1Cn1ccc2c(C(=O)O)cccc21` [Example 104] showed an inhibition at 10 µM of 45 to 75%. `O=C(O)c1cccc2c1ccn2Cc1cc(Cl)ccc1OC1CCCC1` [Example 105] was tested, and the inhibition at 10 µM was greater than 75%. In the case of `CCCOc1ccc(Cl)cc1Cn1ccc2c(C(=O)O)cccc21` [Example 106], the inhibition at 10 µM is reported as 45 to 75%. Compound `CC(C)COc1ccc(F)cc1Cn1ccc2c(C(=O)O)cccc21` [Example 108] has an inhibition at 10 µM of 45 to 75%. `O=C(O)c1cccc2c1ccn2Cc1cc(Cl)ccc1OCCF` [Example 111] gave an inhibition at 10 µM of 45 to 75%. `O=C(O)c1cccc2c1ccn2Cc1cc(Cl)ccc1OCC(F)(F)F` [Example 112] showed an inhibition at 10 µM greater than 75%. Compound `O=C(O)c1cccc2c1cnn2Cc1cc(Cl)ccc1OC1CCCC1` [Example 133] has an inhibition at 10 µM greater than 75%. `CCCOc1ccc(F)cc1Cn1ncc2c(C(=O)O)cccc21` [Example 135] showed an inhibition at 10 µM of 45 to 75%. For `O=C(O)c1ccc(F)c2c1ccn2Cc1ccccc1OCc1ccc(F)cc1F` [Example 140], the inhibition at 10 µM was 45 to 75%. Work on `CC(C)(F)COc1ccc(Cl)cc1Cn1cc(CCO)c2c(C(=O)O)cccc21` [Example 158] yielded an inhibition at 10 µM greater than 75%. `O=C(O)c1cccc2c1c(CCO)cn2Cc1cc(F)ccc1OCc1ccc(F)cc1F` [Example 159] was tested, and the inhibition at 10 µM was greater than 75%. In the case of `CC(C)C(C)Oc1ccc(Cl)cc1CN1CCCc2c(C(=O)O)cccc21` (stereo not shown) [Example 176], the inhibition at 10 µM is reported as 45 to 75%. For `COCCOc1ccc(Cl)cc1CN1CCc2c(C(=O)O)cccc21` [Example 201], the inhibition at 10 µM was 45 to 75%. In the case of `CC(C)(C)COc1ccc(Cl)cc1CN1CCc2c(C(=O)O)cccc21` [Example 203], the inhibition at 10 µM is reported as 45 to 75%.
